These are literature values, as cited in patent US11338162B2 (priority 2013, dated 2022).

One data set concerns rat. Conditions: in vivo.
Another data set relates to rabbit. The note with it: in vivo, topical or ocular.
In another data set the test system is Lepomis macrochirus. The note with it: in vivo.
In data set [1] the test system is Leuciscus idus (Golden orfe). The note with it: in vivo.
For data set [2], the system named is Daphnia magna (Water flea). The note with it: in vivo.
The test system of data set [3] is Desmodesmus subspicatus (green algae). Conditions: 24 h.
In a further data set the test system is Pseudomonas putida. Conditions: 16 h.

The structures appear in SMILES notation.

As for `CCCCOCCOCCO` [DGME, diethylene glycol monobutyl ether], the “LD50 Oral - rat” value in the data set on rat is 5,660 mg/kg. In the data set with rabbit, the “LD50 Dermal - rabbit” value is given as 2,700 mg/kg and the “dermal LD50 in rabbits” value is 2700 mg/kg. For the same compound, in the data set on Lepomis macrochirus, the “Toxicity to fish LC50” value is listed as 1,300 mg/l. For the same compound, the “Toxicity to fish LC50” value in data set [1] is given as >1,000 mg/l. The “Toxicity to daphnia and other aquatic invertebrates LC50 - Daphnia magna (Water flea)” value in data set [2] is 1,950 mg/l. Further, the “Toxicity to algae IC50 - Desmodesmus subspicatus (green algae)” value in data set [3] was above 100 mg/l-24 h. The “Toxicity to bacteria LC50 - Pseudomonas putida” value in the data set on Pseudomonas putida was 1,170 mg/l-16 h.
